Patent US7741372B2, “Guanylhydrazones useful for treating diseases associated with T cell activation” (Cytokine PharmaSciences, Inc., priority 1996, dated 2010)

What was measured:
HIV 1-LAV = assay: HIV replication in PHA-activated primary T cells, reverse transcriptase (RT) assay; format: cell-based
Description: (§1) Cell lysates were prepared for immunoprecipitation and immunoblotting 15 minutes after administration of LPS. In FIGS. 2B, 2C and 2D PHA-activated T cells were pretreated with control diluent or various concentrations of CNI-1493 for one hour, infected with HIV 1-LAV as in FIG. 1, and cultured for 10 days. FIG. 2B is a graph of dose-dependent inhibition by CNI-1493 of HIV-infection as assessed by the accumulation of reverse transcriptase (RT) at day 6 of culture. FIG. 2C is a graph of HIV inhibition by […] CNI-1493 over time. FIG. 2D is an immunoblot of phospho-p38 MAPK expression in HIV-1 infected cells on day 6 after culture treated with/without […] CNI-1493.
This example illustrates a role for the p38 MAP kinase pathway in HIV-1 infection of primary T cells, specifically addressing the hypothesis that activation of p38 MAPK is required for HIV-1 infection of primary T lymphocytes. For studies of human T cells, buffy coats were obtained by elutriation from normal human donors to the Long Island Blood Bank Services. Peripheral blood mononuclear cells (PBMC's) were isolated by density gradient centrifugation through Ficoll-Hypaque (Hypaque, Pharmacia). […]
Primary T cells activated with PHA were pretreated (or not) with CNI-1493 for one hour, infected with the LAV strain of HIV, and RT activity measured at various time points after infection, up to 10 days.

p38 MAPK [1] = assay: phospho-p38 MAPK levels in HIV-1 infected T cells (immunoprecipitation/immunoblot); format: cell-based, human
Description: as §1
T cells were infected with HIV 1-LAV in the presence of […] 18-mer, refed every 3-4 days with media containing fresh oligomer and supernatants collected at various time points for RT assay. Simultaneously, cells were also plated, treated similarly and harvested for phospho-p38 MAPK levels assayed by immunoprecipitation at various time points as measured by RT assay. Shown in this figure is the effect of addition of sense and antisense p38 MAPK oligonucleotide on phospho-p38 levels and its correlation with HIV replication, as measured by RT.
Whole cell lysates were prepared using kinase lysis buffer containing a final concentration of 20 mM Tris pH 7.5, 10% glycerol, 1% Triton X-100, 0.137M NaCl, 25 mM B-glyceropliospliate. […]

HIV-1 = conditions: AIDS patients; cited from earlier work
p38 MAP kinase = molecular target: T1, p38 MAP kinase (Homo sapiens, UniProt Q16539); assay: p38 MAP kinase activity (GST-ATF2 phosphorylation) in Jurkat cells stimulated with anti-CD3/anti-CD28; format: cell-based
T1 construct: Endogenous p38 was immunoprecipitated with polyclonal p38 antibody; endogenous in cells; host or cells: Jurkat cells (ATCC)
T1 sequence (Q16539 whole entry): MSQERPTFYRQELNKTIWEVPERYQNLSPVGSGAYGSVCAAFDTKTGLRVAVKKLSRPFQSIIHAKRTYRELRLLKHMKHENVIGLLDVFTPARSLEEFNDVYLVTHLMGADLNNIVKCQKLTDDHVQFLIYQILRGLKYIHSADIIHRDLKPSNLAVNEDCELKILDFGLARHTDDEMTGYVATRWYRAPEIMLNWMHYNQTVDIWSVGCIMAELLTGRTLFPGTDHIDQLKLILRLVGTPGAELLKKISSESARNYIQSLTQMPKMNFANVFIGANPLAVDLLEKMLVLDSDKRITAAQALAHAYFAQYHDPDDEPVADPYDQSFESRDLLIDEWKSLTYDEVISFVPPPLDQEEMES
Excerpt: For studies of human T cells, buffy coats were obtained by elutriation from normal human donors to the Long Island Blood Bank Services. Peripheral blood mononuclear cells (PBMC's) were isolated by density gradient centrifugation through Ficoll-Hypaque (Hypaque. Pharmacia); typically one preparation yielded 200×10^6 cells. T cells were isolated by passing through a T cell column (R&D) as per manufacturer's instructions. Jurkat cells were obtained from ATCC and maintained in DMEM containing 10% heat-inactivated fetal bovine serum, antibiotics and L-glutamine.
A rabbit polyclonal antibody against p38, and the recombinant GST-AFT2 plasmid where a gift of Dr. Roger Davis (Howard Hughes Institute, Worcester, Mass.). A GST-AFT2 fusion protein was purified by affinity chromatography using glutatione-agarose, as per manufacturer's instructions (Pharmacia, Inc.). The human monoclonal anti-CD3 antibody was purchased from Pharmingen and a human monoclonal anti-CD28 antibody was purchased.
Whole cell lysates were prepared using kinase lysis buffer, containing a final concentration of 20 mM Tris pH 7.5, 10% glycerol, 1% Triton X-100, 0.137M NaCl, 25 mM B-glycerophosphate, 2 mM EDTA, 1 mM orthovanadate, 2 mM pyrophosphate, 10 μg/ml Leupeptin, 1 mM PMSF. Proteins were fractionated on a 12% SDS-PAGE gel, transferred by electrophoresis to PVDF membranes (Biorad, Inc.) and probed with a 1:1000 dilution of a rabbit polyclonal antibody that immunospecifically recognizes phosphorylated human p38 MAPK (Santa Cruz Biotechnology, Inc.). Binding to antibody was detected using enhanced chemiluminescence (Amersham International PLC).
2-5×10^6 cells were lysed after appropriate pretreatment in 500-1000 μl kinase lysis buffer and centrifuged at 14,000×g for 15 minutes at 4° C. Endogenous p38 was immunoprecipitated with polyclonal p38 antibody prebound to protein-A agarose for one hour at room temp. […]

p38 MAPK [2] = molecular target: T2, p38 MAPK (Homo sapiens, UniProt Q16539); assay: p38 MAPK activity in human PBMC's after addition of LPS; format: cell-based; conditions: human PBMC's pretreated with compound
T2 construct: endogenous in cells; host or cells: human PBMCs
T2 sequence (Q16539 whole entry): as above
Excerpt: (§2) This example illustrates an experiment showing that an exemplary guanylhydrazone-substituted compound, CNI-1493 (N,N′-bis(3,5-diacetylphenyl)decanediamide tetrakis(amidinohydrazone) tetrahydrochloride) inhibited the p38 MAP kinase pathway. […] Further evidence for the mechanism of translation suppression was given by experiments using constructs in which the 5′UTR and the 3′UTR of TNF to drive expression of a reporter molecule. Both the 5′UTR and the 3′UTR regions of the TNF gene were required to elicit maximal translation suppression by CNI-1493. The effect of CNI-1493 on p38 MAPK was next determined as p38 MAPK has been implicated in the regulation of TNF translation.

human T lymphocytes = assay: T lymphocyte activation measured by IL-2 synthesis after a-CD3 and a-CD28 stimulation; format: cell-based; conditions: human T lymphocytes stimulated with a-CD3 and a CD28
Excerpt: Without being limited by any theory regarding the mode of action of the multivalent guanylhydrazones, these compounds may work by disrupting the p38 MAPK pathway. p38 MAP kinase pathway plays a critical role in the activation of human T lymphocytes and this pathway is inhibited by the multivalent guanylhydrazone compounds. […] The activation of the p38 MAP kinase pathway was inhibited by the addition of a multivalent guanylhydrazone to the stimulated T lymphocytes. […] In addition, the assays of the present invention may include other in vivo assays to measure the effects of the test compounds on T cell activation. For example, test compounds may be assayed for their ability to inhibit activation of T cells. In such assays, test compounds may be added to T cells co-stimulated with a-CD3 and a-CD28. The stimulation of the T cells should result in the synthesis and secretion of cytokines, such as IL-2.

TNF = TNF production by macrophages activated by LPS; format: cell-based
Excerpt: as §2

MIP 1α and MIP 1β = assay: MIP-1α and MIP-1β levels by sandwich ELISA in HIV 1-LAV infected primary T cells; format: cell-based, human
Description: Assays were done in triplicate and error bars represent standard deviation of the mean.
Because ideal anti-HIV therapies would not interfere with the ability of the host to mount its own defense, it was also evaluated whether inhibition of the p38 MAP kinase signal transduction pathway inhibits chemokine production in T cells. Levels of MIP 1α and MIP 1β during LAV infection of primary T cells were not decreased by CNI-1493 (FIG. 4). MIP 1α and 1β levels dropped slightly late in HIV-1 infection (day 9).

[3] = 1 μM 18-mer, day 7 and day 10 after infection, FIG. 3

## p38 MAP kinase antisense oligonucleotides: 18-mer phosphothiorate oligonucleotide, antisense to bp 324-341 of human p38 MAPK, 5′GTCTTGTTCAGCTCCTGC3′
HIV 1-LAV; [3]
  HIV replication as measured by RT: decreased HIV replication
p38 MAPK [1]; [3]
  phospho-p38 MAPK activity: decrease in phospho-p38 MAPK activity

## CC(C)c1nc(CN(C)C(=O)N[C@H](C(=O)N[C@@H](Cc2ccccc2)C[C@H](O)[C@H](Cc2ccccc2)NC(=O)OCc2cncs2)C(C)C)cs1 [ABT-538]
HIV-1
  CD4 lymphocyte counts: rise substantially
  plasma HIV-1 levels: decrease exponentially

## CC(=NNC(=N)N)c1cc(NC(=O)CCCCCCCCC(=O)Nc2cc(C(C)=NNC(=N)N)cc(C(C)=NNC(=N)N)c2)cc(C(C)=NNC(=N)N)c1.Cl.Cl.Cl.Cl [CNI-1493, N,N′-bis(3,5-diacetylphenyl)decanediamide tetrakis(amidinohydrazone) tetrahydrochloride]
p38 MAP kinase; anti-CD3 alone
  effect on anti-CD3 stimulated p38 MAPK activity: unaffected
p38 MAP kinase; anti-CD28 stimulation (as worded: stimulation of p38 MAPK), dose of 1.5 μM
  inhibition of stimulated p38 MAPK activity: approximately 50%
p38 MAP kinase; dose of 1.5 μM
  inhibition of p38 MAPK activity on co-stimulation with anti-CD3 and anti-CD28: inhibited completely
HIV 1-LAV; primary T cells activated with PHA, pretreated one hour, LAV strain of HIV, RT activity, FIG. 2B, read-out: IC50 of inhibition of HIV replication in T-cells
  IC50: ~500 nM
p38 MAPK [2]
  p38 MAPK activity after the addition of LPS: suppression of p38 MAPK activity
Human T lymphocytes
  activation of T lymphocytes as measured by IL-2 synthesis: inhibition of activation of the T lymphocytes
p38 MAPK [1]; 1 μM, FIGS. 2C, 2D
  p38 MAP kinase activity in HIV-infected T cells: suppression of p38 MAP kinase activity
TNF
  TNF production by macrophages activated by LPS: inhibit TNF production
  synthesis of 26 kDA membrane form of TNF: blocked the synthesis
MIP 1α and MIP 1β; FIG. 4
  level of MIP 1α during LAV infection of primary T cells: not decreased
  level of MIP 1β during LAV infection of primary T cells: not decreased
MIP 1α and MIP 1β; day 6 of HIV-1 infection
  chemokine levels (MIP 1α and 1β) day 6: slightly elevated
MIP 1α and MIP 1β; day 9 of HIV-1 infection
  chemokine levels (MIP 1α and 1β) day 9: normal
